Data as given in PubChem BioAssay AID256 (DTP/NCI, 2004).
Where “and” joins values, the source holds several entries; their conditions need not be identical. Equal entries are not always repeated. Inconclusive results and toxic doses are left out. Rule for the calls: active = survival T/C of 150% or more; inactive = T/C below 125% in these data.

Test system: CD2F1 mice, L1210 leukemia ip, survival T/C
Experiment: NCI In Vivo Anticancer Drug Screen. Data for tumor model L1210 Leukemia (intraperitoneal) in CD2F1 (CDF1) mice
Details: higher = longer survival
Summary of the method: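 Each value reflects a quotient of treated over vehicle control outcomes in mice with a transplanted tumor.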

[1] = endpoint: mean survival time, dose: 100.0 mg/kg/injection, schedule: Q01DX001 (ip), vehicle: saline with Tween-80
[2] = endpoint: mean survival time, dose: 100.0 mg/kg/injection, schedule: Q01DX009 (ip), vehicle: saline with Tween-80
[3] = endpoint: mean survival time, dose: 100.0 mg/kg/injection, schedule: Q04DX003 (ip), vehicle: saline with Tween-80
[4] = endpoint: mean survival time, dose: 200.0 mg/kg/injection, schedule: Q01DX001 (ip), vehicle: saline with Tween-80
[5] = endpoint: mean survival time, dose: 200.0 mg/kg/injection, schedule: Q01DX009 (ip), vehicle: saline with Tween-80
[6] = endpoint: mean survival time, dose: 200.0 mg/kg/injection, schedule: Q04DX003 (ip), vehicle: saline with Tween-80
[7] = endpoint: mean survival time, dose: 400.0 mg/kg/injection, schedule: Q01DX001 (ip), vehicle: saline with Tween-80
[8] = endpoint: mean survival time, dose: 400.0 mg/kg/injection, schedule: Q01DX009 (ip), vehicle: saline with Tween-80
[9] = endpoint: mean survival time, dose: 12.5 mg/kg/injection, schedule: Q01DX009 (ip), vehicle: saline with Tween-80
[10] = endpoint: mean survival time, dose: 25.0 mg/kg/injection, schedule: Q01DX009 (ip), vehicle: saline with Tween-80
[11] = endpoint: mean survival time, dose: 50.0 mg/kg/injection, schedule: Q04DX003 (ip), vehicle: saline with Tween-80
[12] = endpoint: mean survival time, dose: 25.0 mg/kg/injection, schedule: Q04DX002 (ip), vehicle: saline with Tween-80
[13] = endpoint: mean survival time, dose: 25.0 mg/kg/injection, schedule: Q04DX003 (ip), vehicle: saline with Tween-80
[14] = endpoint: mean survival time, dose: 50.0 mg/kg/injection, schedule: Q01DX009 (ip), vehicle: saline with Tween-80
[15] = endpoint: mean survival time, dose: 50.0 mg/kg/injection, schedule: Q04DX002 (ip), vehicle: saline with Tween-80
[16] = endpoint: mean survival time, dose: 100.0 mg/kg/injection, schedule: Q01DX001 (ip), vehicle: saline
[17] = endpoint: mean survival time, dose: 200.0 mg/kg/injection, schedule: Q01DX001 (ip), vehicle: saline
[18] = endpoint: mean survival time, dose: 400.0 mg/kg/injection, schedule: Q01DX001 (ip), vehicle: saline

Measured: T/C

Clc1ccc(Sc2ccc(Cl)cc2)cc1
inactive: [1] 94 % of control | [2] 98 % of control | [3] 91 % of control | [4] 108 % of control | [5] 102 % of control | [6] 91 % of control | [7] 91 % of control | [8] 98 % of control

CCCCCCCCCCCCCCCC[n+]1cccc(C(=O)NCO)c1
inactive: endpoint: mean survival time, dose: 6.25 mg/kg/injection, schedule: Q01DX009 (ip), vehicle: saline with Tween-80 102 % of control | [9] 95 % of control | [10] 95 % of control | [11] 103 % of control | [6] 103 % of control

O=C(/C=C/c1ccccc1Cl)c1ccccc1[N+](=O)[O-]
inactive: [2] 89 % of control | [5] 94 % of control | [8] 95 % of control

C=C1CN(C(=O)NCCCl)C1
inactive: [1] 100 % of control | [4] 100 % of control | [7] 97 % of control

COC(=O)c1ccccc1NC(=O)/C=C/C(=O)O
inactive: endpoint: mean survival time, dose: 50.0 mg/kg/injection, schedule: Q01DX009 (ip), vehicle: saline 94 % of control | endpoint: mean survival time, dose: 100.0 mg/kg/injection, schedule: Q01DX009 (ip), vehicle: saline 88 % of control | [3] 98 % of control | endpoint: mean survival time, dose: 200.0 mg/kg/injection, schedule: Q01DX009 (ip), vehicle: saline 90 % of control | [6] 95 % of control

Nc1nc(-c2ccccc2)cs1
inactive: [3] 105 % of control

CCOC(=O)c1ccc(NC(=O)Nc2ccc(Cl)cc2Cl)cc1
inactive: endpoint: mean survival time, dose: 12.5 mg/kg/injection, schedule: Q01DX001 (ip), vehicle: saline with Tween-80 95 % of control | [9] 91 % of control and 92 % of control | endpoint: mean survival time, dose: 25.0 mg/kg/injection, schedule: Q01DX001 (ip), vehicle: saline with Tween-80 93 % of control and 96 % of control | [10] 88 % of control and 97 % of control | [12] 95 % of control and 96 % of control | [13] 86 % of control | endpoint: mean survival time, dose: 50.0 mg/kg/injection, schedule: Q01DX001 (ip), vehicle: saline with Tween-80 91 % of control | [14] 88 % of control | [15] 88 % of control and 96 % of control | [11] 91 % of control | [4] 92 % of control | endpoint: mean survival time, dose: 200.0 mg/kg/injection, schedule: Q04DX002 (ip), vehicle: saline with Tween-80 88 % of control | [6] 89 % of control | endpoint: mean survival time, dose: 400.0 mg/kg/injection, schedule: Q04DX002 (ip), vehicle: saline with Tween-80 86 % of control

Cc1ccc(Cl)cc1[NH-].Cc1ccc(Cl)cc1[NH-].[Cl][Pt+2][Cl]
inactive: [13] 100 % of control | [11] 95 % of control | [3] 97 % of control | [6] 101 % of control

Cc1cn(C2OC(CO)C(O)C2Cl)c(=O)nc1N (configuration not stated)
inactive: endpoint: median survival time, dose: 12.5 mg/kg/injection, schedule: Q01DX005 (ip), vehicle: saline 101 % of control | endpoint: median survival time, dose: 25.0 mg/kg/injection, schedule: Q01DX005 (ip), vehicle: saline 104 % of control | endpoint: median survival time, dose: 50.0 mg/kg/injection, schedule: Q01DX005 (ip), vehicle: saline 104 % of control | endpoint: median survival time, dose: 100.0 mg/kg/injection, schedule: Q01DX005 (ip), vehicle: saline 101 % of control | endpoint: median survival time, dose: 200.0 mg/kg/injection, schedule: Q01DX005 (ip), vehicle: saline 96 % of control

COC1OC2COc3ccccc3OC2C(N)C1N(C)c1ccccc1 (configuration not stated)
inactive: endpoint: mean survival time, dose: 75.0 mg/kg/injection, schedule: Q01DX001 (ip), vehicle: saline with Tween-80 100 % of control | endpoint: mean survival time, dose: 150.0 mg/kg/injection, schedule: Q01DX001 (ip), vehicle: saline with Tween-80 97 % of control

C[CH2][Sn]([Cl])([Cl])[Cl].Oc1ccccc1C=NCCN=Cc1ccccc1O
inactive: [14] 100 % of control | [2] 95 % of control | [3] 98 % of control | [5] 97 % of control | [6] 89 % of control

CCCCCCCCCCCCCCCCCC[N+]1(C)CCOCC1
inactive: endpoint: mean survival time, dose: 6.25 mg/kg/injection, schedule: Q04DX002 (ip), vehicle: Klucel (hydroxypropylcellulose) (HPC) 95 % of control | endpoint: mean survival time, dose: 12.5 mg/kg/injection, schedule: Q04DX002 (ip), vehicle: Klucel (hydroxypropylcellulose) (HPC) 91 % of control | endpoint: mean survival time, dose: 25.0 mg/kg/injection, schedule: Q04DX002 (ip), vehicle: Klucel (hydroxypropylcellulose) (HPC) 90 % of control and 98 % of control | endpoint: mean survival time, dose: 100.0 mg/kg/injection, schedule: Q04DX002 (ip), vehicle: Klucel (hydroxypropylcellulose) (HPC) 101 % of control

CC(=O)OC1CCC2(C)C(CCC3C2CCC2(C)C3CC3OC(CCC(C)CO)C(C)C32)C1 (configuration not stated)
inactive: [2] 95 % of control | [5] 91 % of control | [8] 96 % of control

CCN(CC)CCCC(C)Nc1nnc2c(=O)n(C)c(=O)n(C)c2n1 (configuration not stated)
inactive: endpoint: mean survival time, dose: 75.0 mg/kg/injection, schedule: Q01DX001 (ip), vehicle: saline 95 % of control | endpoint: mean survival time, dose: 150.0 mg/kg/injection, schedule: Q01DX001 (ip), vehicle: saline 93 % of control | endpoint: mean survival time, dose: 300.0 mg/kg/injection, schedule: Q01DX001 (ip), vehicle: saline 87 % of control

COC1OC(CO)C(NC(N)=O)C1O (configuration not stated)
inactive: [16] 101 % of control | [17] 100 % of control | [18] 95 % of control

CC(O)(CCCCCCCC(C)(O)c1ccccc1)c1ccccc1 (configuration not stated)
inactive: [3] 113 % of control | [6] 103 % of control | endpoint: mean survival time, dose: 400.0 mg/kg/injection, schedule: Q04DX003 (ip), vehicle: saline with Tween-80 88 % of control

N#CC(=C=[N-])C(C#N)(C#N)Cc1ccccc1.[C-]#[O+].[C-]#[O+].[Fe+6].[c-]1[c-][c-][cH-][c-]1
inactive: endpoint: mean survival time, dose: 12.5 mg/kg/injection, schedule: Q04DX002 (ip), vehicle: saline with Tween-80 93 % of control | [12] 97 % of control | [15] 97 % of control

Brc1cnc2n[nH]nc2c1
inactive: [16] 109 % of control | [17] 97 % of control | [18] 97 % of control

CS(=O)(=O)OCCNc1ccc([N+](=O)[O-])cc1
inactive: endpoint: mean survival time, dose: 8.0 mg/kg/injection, schedule: Q01DX001 (ip), vehicle: saline 100 % of control | endpoint: mean survival time, dose: 10.0 mg/kg/injection, schedule: Q01DX010 (ip), vehicle: saline 103 % of control | endpoint: mean survival time, dose: 16.0 mg/kg/injection, schedule: Q01DX001 (ip), vehicle: saline 95 % of control | endpoint: mean survival time, dose: 30.0 mg/kg/injection, schedule: Q01DX010 (ip), vehicle: saline 113 % of control | endpoint: mean survival time, dose: 32.0 mg/kg/injection, schedule: Q01DX001 (ip), vehicle: saline 98 % of control | endpoint: mean survival time, dose: 64.0 mg/kg/injection, schedule: Q01DX001 (ip), vehicle: saline 90 % of control and 100 % of control | endpoint: mean survival time, dose: 100.0 mg/kg/injection, schedule: Q01DX010 (ip), vehicle: saline 119 % of control | endpoint: mean survival time, dose: 128.0 mg/kg/injection, schedule: Q01DX001 (ip), vehicle: saline 96 % of control | endpoint: mean survival time, dose: 256.0 mg/kg/injection, schedule: Q01DX001 (ip), vehicle: saline 96 % of control | endpoint: mean survival time, dose: 300.0 mg/kg/injection, schedule: Q01DX010 (ip), vehicle: saline 97 % of control
